Laboratory results: patent US11331368B2, “Angiotensin receptor agonists and uses thereof” (Monash University, priority 2017, dated 2022)

Assays:
[1] = test system: male FVB/N mice on high salt diet, kidney; experiment: High salt (5%) diet intervention model, kidney; format: in vivo, mouse; conditions: 75 pmol/kg/min s.c., weeks 5-8
Procedure: (§1) C) In the intervention (or reversal) model, male FVB/N mice were treated with selective AT2Rs agonists after the establishment of cardiovascular disease using a high salt diet, in order to reverse cardiovascular pathologies. In some experiments, the ACE inhibitor captopril (dose) or the ARB candesartan cilexetil (dose) were given for 4 weeks in drinking water. Organs examined included heart, kidney and liver and these were compared to either untreated mice or high salt-fed mice that were treated with saline.
(§2) Mice were placed on either a normal rodent diet (0.35% NaCl) which acted as control or a high salt diet (5% sodium in food chow) for 8 weeks. After 4 weeks, mice were also treated subcutaneously (via osmotic mini-pump) with either saline or an AT2R agonist (75 pmol/kg/min subcutaneously) for 4 weeks. Mice continued to be fed a high salt diet whilst receiving these treatments.
(§3) To measure collagen deposition, frozen sections of heart, kidney or aorta (all 5 μm thickness) were air dried for 10 minutes and were brought through 3 times xylene (2 minutes each), and 3 times absolute alcohol washes before being rinsed in tap H2O for 30 seconds. Staining with an optimal concentration of picrosirius red (in this instance 0.05% picrosirius red diluted in saturated picric acid) was performed and left for an hour. Sections were then rinsed in water and differentiated in 0.01M HCl for 2 minutes, followed by dehydration via 3 times absolute alcohol washes. Then, slides were brought through 3 times xylene washes before being cover slipped according to standard histological techniques using DPX as the mounting medium. Images were taken under ×20 magnification, using bright field (Olympus, BX51) and circularized polarized light microscopy (DM IRB, Leica) while percentage of positive interstitial collagen staining per total field of view was quantified using ImageJ 1.46 software (Java, NIH), and averaged out from a total of eight views as the final percentage collagen content in a particular animal.
Kidney sections used either picrosirius red staining as described above or using Mason's Trichrome staining as described below.
Formalin fixed, paraffin embedded kidneys were sectioned at thickness of 4 μm and were stained with Masson's trichrome according to standard procedures for analysis of kidney fibrosis. […] Sections were re-fixed in Bouin's solution for 1 hour at 56° C. to improve staining quality then rinsed in running tap water for 5-10 minutes to remove yellow colour. Following this, sections were stained in Weigert's iron hematoxylin working solution for 10 minutes. Rinsed in running warm tap water for 10 minutes. Washed in distilled water. Stained in Biebrich scarlet-acid fuchsin solution for 10-15 minutes. Washed in distilled water. Differentiated in phosphomolybdic-phosphotungstic acid solution for 10-15 minutes or until collagen was no longer red. Sections were transferred directly (without rinse) to aniline blue solution and stained for 5-10 minutes. Rinsed briefly in distilled water and differentiated in 1% acetic acid solution for 2-5 minutes. Washed in distilled water. […] Mounted with DPX mounting medium.
Quantification of kidney fibrosis was performed using images captured with the Aperio scanner (Monash Histology Platform, Monash University), with ×5 magnification. Each kidney section had 5 different fields of view photographed at this magnification. Percentage of tubulointerstitial collagen was analysed and quantified using ImageJ 1.48 software (Java, NIH), and the percentage from 5 random fields of view were averaged for final percentage of collagen for that particular animal. All analysis of collagen expression was conducted in a blinded fashion.

[2] = test system: male FVB/N mice on high salt diet, heart; experiment: High salt (5%) diet intervention model, heart; format: in vivo, mouse; conditions: for cardiac fibrosis by hydroxyproline analysis (LV collagen content) / cardiac oxidative stress (DHE staining) / myofibroblast differentiation in heart (α-SMA): 75 pmol/kg/min s.c.; for cardiac fibrosis by hydroxyproline analysis (LV collagen content) / cardiac oxidative stress (DHE staining) / myofibroblast differentiation in heart (α-SMA) / expression of P-IκBα (marker for NFκB activation) in heart: weeks 5-8; for expression of P-IκBα (marker for NFκB activation) in heart: peptides 75 pmol/kg/min s.c., captopril 3 mg/kg/day; for expression of P-IκBα (marker for NFκB activation) in heart / cardiac fibrosis (picrosirius red): Cand 2 mg/kg/day; for cardiac fibrosis (picrosirius red): weeks 5-8 of high salt diet, peptides 75 pmol/kg/min s.c. mini-pump, captopril 3 mg/kg/day in drinking water
Procedure: as §1
A high-salt diet (5% salt) model is a clinically relevant and disease-reversal model which can replicate the high salt intake by humans which is currently a growing problem in the developed countries. High salt intake induces changes in the cardiovascular system and induces remodelling and fibrosis in the heart, kidney and liver.
as §2
All mice which underwent surgery were anaesthetized with Isoflurane (Isorrane) (5% induction and 2.5% maintenance) and an incision made in the midscapular region through which osmotic minipumps (Alzet model 2004, Alza Corp) were inserted for subcutaneous drug administration. The incision area was sutured with 6/0 DY silk (Dynek Pty Ltd) and antibiotic powder applied (Cicatrin, Pfizer) followed by intramuscular injection of the analgesic Cartrophen (0.1 ml of a 1.5 mg/ml stock solution; Biopharm Australia). Systolic blood pressure (SBP) was measured using non-invasive tail-cuff plethysmography apparatus (MC4000 Blood Pressure Analysis System, Hatteras Instrument Inc) before drug treatment (week 0), and then fortnightly. At the end of the 8 week treatment period mice were weighed before being killed by overdose of isoflurane inhalation and cervical dislocation.
as §3
Immunostaining was performed on 5 μm thick transverse frozen heart sections. These sections were air dried and fixed in ice-cold acetone for approximately 15 minutes before washing with 0.01M PBS buffer (3×10 minutes). Sections were then incubated with 10% goat serum in 0.01M PBS for 30 minutes to reduce non-specific binding. If the primary antibody is raised in goat, this pre-blocked medium is substituted with 5% BSA in PBS and Triton-X. Next, blocking buffers were removed and the primary antibody to respective markers were applied overnight at room temperature based on the following dilution and origin of the antibodies: α-SMA (1:500, Abcam), Vimentin (1:500, Santa Cruz), P-IκBα (1:200, Cell Signalling), F4/80 macrophage (1:100, Serotec). […]

[3] = test system: male FVB/N mice on high salt diet, kidney; experiment: High salt (5%) diet intervention model, kidney; format: in vivo, mouse; conditions: 75 pmol/kg/min s.c., weeks 5-8; remark: listed apart in the source
[4] = target: T1, human AT1R (Homo sapiens, UniProt P30556); experiment: Competition radioligand binding (125I-Sar1-Ile8-AngII) in AT1R-transfected HEK-293 cells
T1 construct: expressed in transfected cells
T1 sequence (P30556 1-359): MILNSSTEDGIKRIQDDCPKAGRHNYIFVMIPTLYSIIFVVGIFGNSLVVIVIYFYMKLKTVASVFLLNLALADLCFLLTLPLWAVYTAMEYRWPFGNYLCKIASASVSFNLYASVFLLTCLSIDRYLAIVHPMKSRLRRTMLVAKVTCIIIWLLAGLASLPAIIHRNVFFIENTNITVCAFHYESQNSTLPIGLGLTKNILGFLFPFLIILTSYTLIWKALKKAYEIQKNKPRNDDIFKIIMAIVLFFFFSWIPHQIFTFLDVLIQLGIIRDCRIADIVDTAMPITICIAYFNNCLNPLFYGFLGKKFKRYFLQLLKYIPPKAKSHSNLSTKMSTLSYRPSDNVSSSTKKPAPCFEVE

[5] = target: T2, human AT2R (Homo sapiens, UniProt P50052); experiment: Competition radioligand binding (125I-Sar1-Ile8-AngII) in AT2R-transfected HEK-293 cells; conditions: for Fold AT2R selectivity: AT2R over AT1R, Table 3; for binding at AT2R (displacement of 125I-Sar1-Ile8-AngII), in words: transfected HEK-293 cells
T2 construct: expressed in transfected cells
T2 sequence (P50052 1-363): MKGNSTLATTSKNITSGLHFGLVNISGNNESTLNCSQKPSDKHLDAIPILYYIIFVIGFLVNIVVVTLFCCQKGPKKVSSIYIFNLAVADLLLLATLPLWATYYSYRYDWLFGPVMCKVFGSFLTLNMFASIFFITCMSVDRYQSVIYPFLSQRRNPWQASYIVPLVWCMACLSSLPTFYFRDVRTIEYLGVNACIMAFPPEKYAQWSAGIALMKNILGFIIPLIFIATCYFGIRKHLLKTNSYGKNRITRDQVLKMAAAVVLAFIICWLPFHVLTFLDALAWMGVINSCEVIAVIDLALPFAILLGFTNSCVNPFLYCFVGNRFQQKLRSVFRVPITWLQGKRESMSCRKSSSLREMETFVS

[6] = test system: human cardiac fibroblasts; experiment: TGF-β1-induced collagen production in human cardiac fibroblasts (Western blot); format: cell-based; conditions: co-treated with TGF-β1 for 3 days, increasing concentrations up to 1 μM
Procedure: D) Human cardiac fibroblasts (HCFs) were treated with TGFβ1 to induce a pro-fibrotic phenotype state in cell culture, exemplified by increased collagen-1 production, measured by Western blot. HCFs were treated with TGFβ1 alone, or in the presence of an AT2R agonist for 3 days, and the ability of AT2R agonists to inhibit TGFβ1-induced collagen-1 production was measured.
Commercially available human cardiac fibroblasts (HCF, Catalog #6300, Sciencell, Calif., USA) were grown in T75 flask maintained in an incubator at 37° C., 5% CO2. Complete media composition: M199 media (#11150-059, life technologies)+10% FBS (#10437-028, life technologies)+1% Fibroblast Growth Supplement-2 (#2382, ScienCell)+1% penicillin/streptomycin 10,000 U/ml antibiotics (#15140-122, Life Technologies). Fresh complete media was replenished every alternate day until culture reached 70% confluence in which media is replenished daily until it reached approximately 90% confluence in order to passage/subculture. To subculture, media was discarded and culture was rinsed with warm PBS. After which, culture was detached using warm 0.05% Trypsin+EDTA with gentle swirling of flask to make sure cells were not adherent to surface of flask. Trypsin was then neutralized with complete media and suspension was then transferred into a new falcon tube and centrifuged at 1000 rpm for 5 minutes. Supernatant was discarded and pellet of cells were resuspended with 5 ml of complete media, followed by cell counting. For subculturing/passaging, 1 million HCFs are placed into a T75 flask. For Picrosirius Red (PSR) staining or immunofluorescence experiments, 100 k cells were loaded per well in a 24 well plate lined with round coverslips. […]
Once treatment is complete, cells were washed with warm PBS and detached using Accutase (A6964, Sigma), with 5 minutes incubation at 37° C. […] The supernatant (˜20 ul) was transferred to a new tube and protein concentrations were measured using Biorad Lowry protein assay. Protein quantification of respective markers were performed via standard western blot analysis. […]

Compound | kidney glomerular fibrosis (picrosirius red) [1] | kidney tubulointerstitial fibrosis (picrosirius red) [1] | cardiac fibrosis by hydroxyproline analysis (LV collagen content) [2] | cardiac oxidative stress (DHE staining) [2] | myofibroblast differentiation in heart (α-SMA) [2] | expression of P-IκBα (marker for NFκB activation) in heart [2] | cardiac fibrosis (picrosirius red) [2] | macrophage infiltration in kidney (F4/80) [3] | renal fibrosis by hydroxyproline analysis [3] | renal inflammation (phospho-IκBα expression) [3] | binding at AT1R (displacement of 125I-Sar1-Ile8-AngII), in words [4] | Fold AT2R selectivity [5] | AT2R/AT1R selectivity ratio ([5]; approximate or conservatively estimated, listed as β-Pro^7-Trp^8-Ang III) | binding at AT2R (displacement of 125I-Sar1-Ile8-AngII), in words [5] | TGF-β1-induced collagen production [6]
Arg-Val-Tyr-Ile-His-β-Pro-Trp [βPro-Trβ-8-Ang III] | reversed the glomerular fibrosis caused by high salt in the kidney | reversed the tubulointerstitial fibrosis caused by high salt in the kidney | reversed the pro-fibrotic effects of high salt in the heart | reversed the oxidative stress effects of high salt in the heart | reversed myofibroblast differentiation | reversed | reversed cardiac fibrosis | reversed high salt-induced macrophage infiltration in the kidney | reversed the pro-fibrotic effects of high salt in the kidney | reversed high salt-induced renal inflammation in the kidney | bind poorly | >400,000 fold | > 400,000 fold | high affinity | –
CC[C@H](C)[C@H](NC(=O)[C@H](Cc1ccc(O)cc1)NC(=O)[C@@H](NC(=O)C[C@H](CCCNC(=N)N)NC(=O)[C@@H](N)CC(=O)O)C(C)C)C(=O)N[C@@H](Cc1c[nH]cn1)C(=O)N1CCC[C@H]1C(=O)N[C@@H](Cc1ccccc1)C(=O)O [βArg-Ang II, Asp-β-Arg-Val-Tyr-Ile-His-Pro-Phe] | – | – | – | – | – | – | – | – | – | – | – | – | – | – | inhibited the TGF-β1-mediated pro-fibrotic phenotype
D-Arg-Val-Tyr-Ile-His-β-Pro-Trp [D-Arg-βPro-Trp-8-Ang III] | reversed the glomerular fibrosis caused by high salt in the kidney | reversed the tubulointerstitial fibrosis caused by high salt in the kidney | reversed the pro-fibrotic effects of high salt in the heart | reversed the oxidative stress effects of high salt in the heart | reversed myofibroblast differentiation | reversed | reversed cardiac fibrosis | reversed high salt-induced macrophage infiltration in the kidney | reversed the pro-fibrotic effects of high salt in the kidney | reversed high salt-induced renal inflammation in the kidney | bind poorly | >18,000 fold | – | high affinity | –
